Patent publication US6545002B1 (University of Virginia Patent Foundation, priority 1999, dated 2003)
Like-named read-outs stand apart in the source and are kept apart here.

Legend:
[1] = molecular target: T1, rat A2A receptors (rA2A) (Rattus norvegicus, UniProt P30543); assay: Displacement of [3H]CGS 21680 binding in rat striatal membranes
T1 construct: to A2A receptors from rat striatal membranes was performed as described; from tissue; host or cells: rat striatal membranes
Method: (§1) Bruns, R. F. et al., Naunyn-Schmiedeberg's Arch. […] Binding of [^3H]R-N^6-phenylisopropyladenosine. Schwabe, U. et al., Naunyn-Schmiedeberg's Arch. […] (Dupont NEN, Boston, Mass.) to A2A receptors from rat striatal membranes was performed as described. […] All non-radioactive compounds were initially dissolved in DMSO, and diluted with buffer to the final concentration, where the amount of DMSO never exceeded 2%. Incubations were terminated by rapid filtration over Whatman GF/B filters, using a Brandell cell harvester (Brandell, Gaithersburg, Md.). The tubes were rinsed three times with 3 mL buffer each.
(§2) At least six different concentrations of competitor, spanning 3 orders of magnitude adjusted appropriately for the IC50 of each compound, were used. IC50 values, calculated with the nonlinear regression method implemented in (Graph-Pad Prism, San Diego, Calif.), were converted to apparent Ki values as described. Linden, J., J. Cycl. Nucl.

[2] = molecular target: T2, human A2B receptors (hA2B) (Homo sapiens, UniProt P29275); assay: Radioligand binding ([125I]ABOPX / [3H]ZM241385) at human A2B receptors expressed in HEK-293 cells; settings: for rA1/hA2B: Ki ratio
T2 construct: expressed in transfected cells; host or cells: HEK-293 (HEK-A2B, G418-selected)
T2 sequence (P29275 1-332): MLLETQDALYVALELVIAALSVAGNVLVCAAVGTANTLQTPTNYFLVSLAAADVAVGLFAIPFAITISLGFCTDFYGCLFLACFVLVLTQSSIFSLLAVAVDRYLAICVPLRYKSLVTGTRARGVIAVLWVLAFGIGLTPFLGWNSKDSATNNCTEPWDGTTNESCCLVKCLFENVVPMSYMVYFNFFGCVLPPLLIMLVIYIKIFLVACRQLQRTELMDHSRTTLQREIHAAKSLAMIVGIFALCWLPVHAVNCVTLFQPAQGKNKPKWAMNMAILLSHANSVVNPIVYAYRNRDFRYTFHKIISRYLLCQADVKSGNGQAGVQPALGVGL

[3] = molecular target: T3, human A3 receptors (hA3) (Homo sapiens, UniProt P0DMS8); assay: Displacement of [125I]ABA binding at human A3 receptors expressed in HEK-293 cells
T3 construct: expressed in transfected cells; host or cells: HEK-293
T3 sequence (P0DMS8 1-318): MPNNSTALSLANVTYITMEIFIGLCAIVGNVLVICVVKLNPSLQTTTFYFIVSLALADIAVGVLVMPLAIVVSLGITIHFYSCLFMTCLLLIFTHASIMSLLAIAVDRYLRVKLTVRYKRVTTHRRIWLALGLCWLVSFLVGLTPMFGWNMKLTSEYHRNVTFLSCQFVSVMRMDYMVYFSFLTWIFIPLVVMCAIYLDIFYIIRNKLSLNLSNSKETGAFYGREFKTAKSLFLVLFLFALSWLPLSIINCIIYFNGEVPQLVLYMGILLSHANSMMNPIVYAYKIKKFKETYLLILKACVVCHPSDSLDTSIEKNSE

[4] = molecular target: T4, recombinant human A1 receptors (hA1) (Homo sapiens, UniProt P30542); assay: Radioligand binding ([3H]CPX) at recombinant human A1 receptors in HEK-293 cells
T4 sequence (P30542 1-326): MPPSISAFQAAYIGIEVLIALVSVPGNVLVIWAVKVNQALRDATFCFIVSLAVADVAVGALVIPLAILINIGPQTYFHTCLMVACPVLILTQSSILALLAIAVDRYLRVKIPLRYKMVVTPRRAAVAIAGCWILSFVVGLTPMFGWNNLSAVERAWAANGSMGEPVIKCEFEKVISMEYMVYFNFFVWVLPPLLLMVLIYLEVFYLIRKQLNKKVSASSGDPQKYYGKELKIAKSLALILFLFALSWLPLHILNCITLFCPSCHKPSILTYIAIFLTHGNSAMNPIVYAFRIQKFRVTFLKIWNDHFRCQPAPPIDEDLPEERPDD
Method: (§3) The potency of the xanthine derivatives at human A2B receptors was evaluated using two binding assays. […] In order to determine selectivity, the xanthines were evaluated using standard binding assays at A1, A2A, and A3 receptors.

[5] = molecular target: recombinant human A2A receptors (hA2A) (Homo sapiens, UniProt P29274); assay: Radioligand binding (125I-ZM241385) at recombinant human A2A receptors in HEK-293 cells
Method: as §3

[6] = molecular target: T5, rat A1 receptors (rA1) (Rattus norvegicus, UniProt P25099); assay: Displacement of [3H]R-PIA binding in rat brain (cerebral cortical) membranes
T5 construct: to A1 receptors from rat cerebral cortical membranes; from tissue; host or cells: rat cerebral cortical (brain) membranes
T5 sequence (P25099 1-326): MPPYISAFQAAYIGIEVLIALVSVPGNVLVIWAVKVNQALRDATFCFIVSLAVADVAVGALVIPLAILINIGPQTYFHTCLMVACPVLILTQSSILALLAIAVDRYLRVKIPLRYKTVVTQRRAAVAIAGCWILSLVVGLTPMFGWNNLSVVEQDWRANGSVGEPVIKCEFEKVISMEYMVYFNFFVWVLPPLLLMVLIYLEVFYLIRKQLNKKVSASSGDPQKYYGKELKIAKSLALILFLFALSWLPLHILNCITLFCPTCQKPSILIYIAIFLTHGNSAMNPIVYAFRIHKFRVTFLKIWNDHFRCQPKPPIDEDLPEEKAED
Method: as §1, §2

[7] = Table 2, read-out: rA2A Ki or IC50
[8] = Table 2, read-out: hA2B Ki or IC50
[9] = Table 2, read-out: hA3 Ki or IC50
[10] = read-out: hA1 Ki or IC50, Table 2
[11] = read-out: hA2A Ki or IC50, Table 2
[12] = Table 2, read-out: rA1 Ki or IC50
[13] = Table 4, footnote a: [125I]-ABOPX, read-out: hA2B Ki (value marked ^a) (converted)
[14] = Table 4, unmarked value, first of two binding assays, read-out: hA2B Ki
[15] = Table 4, footnote a: [125I]ABA, read-out: hA3 Ki (value marked ^a)
[16] = read-out: hA1 Ki, values marked (h)^a, Table 4, vs [3H]CPX, HEK-293
[17] = read-out: hA2A Ki, values marked (h)^a, Table 4, vs [125I]ZM241385, HEK-293

T1 sequence (P30543 whole entry): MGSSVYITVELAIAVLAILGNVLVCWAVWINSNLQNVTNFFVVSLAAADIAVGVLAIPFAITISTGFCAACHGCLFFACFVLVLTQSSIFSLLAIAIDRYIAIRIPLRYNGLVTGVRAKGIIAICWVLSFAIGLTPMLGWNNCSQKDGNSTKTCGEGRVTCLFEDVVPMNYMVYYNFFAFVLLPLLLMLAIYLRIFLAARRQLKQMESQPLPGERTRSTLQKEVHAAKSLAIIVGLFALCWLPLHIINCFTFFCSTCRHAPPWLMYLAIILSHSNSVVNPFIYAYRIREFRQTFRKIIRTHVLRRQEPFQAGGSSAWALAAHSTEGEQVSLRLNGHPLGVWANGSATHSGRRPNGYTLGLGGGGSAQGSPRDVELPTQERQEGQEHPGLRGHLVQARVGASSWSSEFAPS
recombinant human A2A receptors (hA2A), sequence (P29274 whole entry): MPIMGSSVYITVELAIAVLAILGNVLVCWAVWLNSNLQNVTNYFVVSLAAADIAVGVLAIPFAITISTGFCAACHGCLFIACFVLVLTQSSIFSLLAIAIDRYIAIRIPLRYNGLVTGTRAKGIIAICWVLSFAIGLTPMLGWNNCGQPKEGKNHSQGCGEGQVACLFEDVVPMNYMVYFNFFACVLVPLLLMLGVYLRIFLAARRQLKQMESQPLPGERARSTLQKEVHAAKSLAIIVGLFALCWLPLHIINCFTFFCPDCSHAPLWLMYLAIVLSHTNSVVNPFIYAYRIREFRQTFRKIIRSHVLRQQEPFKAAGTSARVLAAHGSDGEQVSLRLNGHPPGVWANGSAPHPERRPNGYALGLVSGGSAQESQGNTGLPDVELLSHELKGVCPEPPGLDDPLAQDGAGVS

## CCCn1c(=O)c2[nH]c(-c3ccc(C=CC(=O)O)cc3)nc2n(CCC)c1=O [Compound 8]
[1]; Table 1, [3H]CGS 21680, rat striatal membranes, read-out: rA2A Ki or IC50
  Ki: 0.8 µM
[2]; Table 1, [125I]ABOPX, HEK-293, read-out: hA2B Ki or IC50
  Ki: 0.06 ± 0.002 µM
[3]; Table 1, [125I]ABA, HEK-293, read-out: hA3 Ki or IC50
  Ki: 0.03 ± 0.014 µM
[4]; read-out: hA1 Ki, values marked (h), Table 1, recombinant human A1, HEK 293
  Ki: 0.14 ± 0.003 µM
[5]; read-out: hA2A Ki, values marked (h), Table 1, recombinant human A2A, HEK 293
  Ki: 0.19 ± 0.071 µM

## CCCn1c(=O)c2[nH]c(-c3ccc(OCC(=O)Nc4ccccc4)cc3)nc2n(CCC)c1=O [Compound 12, 8-[4-[(Phenylcarbamoylmethyl)oxy]phenyl]-1,3-di-(n-propyl)-xanthine]
[1]; [7]
  Ki: 0.0456 ± 0.0014 µM
[2]; [8]
  Ki: 0.00148 ± 0.00063 µM
[3]; [9]
  Ki: 0.137 ± 0.054 µM
other
  melting point: 301 to 302 °C
[4]; [10]
  Ki: 0.0401 ± 0.0051 µM
[5]; [11]
  Ki: 0.0258 ± 0.0045 µM

## CCCn1c(=O)c2[nH]c(-c3ccc(OCC(=O)NCc4ccccc4)cc3)nc2n(CCC)c1=O [Compound 13, 8-[4-[(Benzylcarbamoylmethyl)oxy]phenyl]-1,3-di-(n-propyl)-xanthine]
[6]; [12]
  Ki: 0.00502 ± 0.00055 µM
[1]; read-out: rA2A Ki or IC50
  Ki: 0.0259 ± 0.0076 µM
[3]; [9]
  Ki: 0.0792 ± 0.0178 µM
other
  melting point: 268 °C
[4]; [10]
  Ki: 0.0547 ± 0.0212 µM
[5]; read-out: hA2A Ki or IC50
  Ki: 0.0238 ± 0.00571 µM

## CCCn1c(=O)c2[nH]c(-c3ccc(OCC(=O)N(Cc4ccccc4)Cc4ccccc4)cc3)nc2n(CCC)c1=O [Compound 15, 8-[4-[(Dibenzylcarbamoylmethyl)oxy]phenyl]-1,3-di-(n-propyl)-xanthine]
[6]; [12]
  Ki: 0.167 ± 0.049 µM
[1]; [7]
  Ki: 2.75 µM
[2]; [8]
  Ki: 0.00988 ± 0.00105 µM
[3]; [9]
  Ki: 0.284 ± 0.014 µM
other
  melting point: 230 °C
[4]; [10]
  Ki: 0.69 ± 0.098 µM
[5]; [11]
  Ki: 0.642 ± 0.198 µM

## CCCn1c(=O)c2[nH]c(-c3ccc(OCC(=O)Nc4ccccc4C(C)=O)cc3)nc2n(CCC)c1=O [Compound 18, 8-[4-[((2-Acetylphenyl)carbamoylmethyl)oxy]phenyl]-1,3-di-(n-propyl)xanthine]
[6]; [12]
  Ki: 0.0279 ± 0.0016 µM
[1]; [7]
  Ki: 0.434 ± 0.129 µM
[2]
  selectivity for human A2B versus human A1 receptors: 120 fold
  selectivity for human A2B versus human A2A receptors: 160 fold
  selectivity for human A2B versus human A3 receptors: 23 fold
  selectivity for human A2B versus rat A1 receptors: 10 fold
  selectivity for human A2B versus rat A2A receptors: 160 fold
[2]; [8]
  Ki: 0.00274 ± 0.00101 µM
[3]; [9]
  Ki: 0.0619 ± 0.0034 µM
other
  melting point: 294 °C
[4]; [10]
  Ki: 0.335 ± 0.064 µM
[5]; [11]
  Ki: 0.431 ± 0.176 µM

## CCCn1c(=O)c2[nH]c(-c3ccc(OCC(=O)Nc4cccc(C(C)=O)c4)cc3)nc2n(CCC)c1=O [Compound 19, 8-[4-[((3-Acetylphenyl)carbamoylmethyl)oxy]phenyl]-1,3-di-(n-propyl)xanthine]
[6]; [12]
  Ki: 0.439 ± 0.111 µM
[1]; [7]
  Ki: 0.949 ± 0.394 µM
[2]; [8]
  Ki: 0.00492 ± 0.00055 µM
[3]; [9]
  Ki: 0.352 ± 0.069 µM
other
  melting point: 269 to 270 °C
[4]; [10]
  Ki: 0.234 ± 0.028 µM
[5]; [11]
  Ki: 0.0589 ± 0.0071 µM

## CCCn1c(=O)c2[nH]c(-c3ccc(OCC(=O)Nc4ccc(C(C)=O)cc4)cc3)nc2n(CCC)c1=O [Compound 20, 8-[4-[((4-Acetylphenyl)carbamoylmethyl)oxy]phenyl]-1,3-di-(n-propyl)xanthine]
[6]; [12]
  Ki: 0.0376 ± 0.004 µM
[1]; [7]
  Ki: 0.548 ± 0.183 µM
[2]
  selectivity for human A2B versus rat A1 receptors: 27 fold
[2]; [8]
  Ki: 0.00139 ± 0.0003 µM
[3]; [9]
  Ki: 0.23 ± 0.023 µM
[4]; [10]
  Ki: 0.157 ± 0.008 µM
[5]; [11]
  Ki: 0.112 ± 0.037 µM

## CCCn1c(=O)c2[nH]c(-c3ccc(/C=C/C(=O)Nc4ccccc4C(C)=O)cc3)nc2n(CCC)c1=O [Compound 35, 8-[4(2-(2-Acetylphenyl)carbamoyl-trans-vinyl)phenyl]-1,3-di-(n-propyl)xanthine]
[6]; Table 3, read-out: rA1 Ki or IC50
  Ki: 0.00767 ± 0.0022 µM
[1]; Table 3, read-out: rA2A Ki or IC50
  Ki: 0.143 ± 0.05 µM
[2]; Table 3, read-out: hA2B Ki or IC50
  Ki: 0.00365 ± 0.00098 µM
[3]; Table 3, read-out: hA3 Ki or IC50
  Ki: 0.121 ± 0.138 µM
other
  melting point: 281 to 283 °C

## CCCn1c(=O)c2[nH]c(-c3ccc(OCC(=O)NNC(C)=O)cc3)nc2n(CCC)c1=O [Compound 41, 8-[4-[(Carboxymethyl)oxy]phenyl]-1,3-di-(n-propyl)xanthine N-Acetylhydrazide]
[6]; Table 4, read-out: rA1 Ki
  Ki: 0.00651 ± 0.00124 µM
[1]; Table 4, read-out: rA2A Ki
  Ki: 0.227 ± 0.064 µM
[2]; Table 4
  rA1/hA2B: 0.10
[2]; [13]
  Ki: 0.0338 ± 0.0137 µM
[2]; [14]
  Ki: 0.0654 ± 0.0065 µM
[3]; [15]
  Ki: 0.0309 ± 0.0082 µM
[4]; [16]
  Ki: 0.125 ± 0.014 µM
[5]; [17]
  Ki: 0.186 ± 0.009 µM

## CCCn1c(=O)[nH]c(=O)c2[nH]c(-c3ccc(OCC(=O)NN4C(=O)C(C)=C(C)C4=O)cc3)nc21 [Compound 48]
[6]; Table 4, read-out: rA1 Ki
  Ki: 3.59 ± 0.92 µM
[1]; Table 4, at 100,000 nM
  rA2A % displacement of specific binding: 36 ± 4%
[2]; Table 4
  rA1/hA2B: 2.0
[2]; [13]
  Ki: 1.9 µM
[2]; [14]
  Ki: 1.8 µM
[3]; [15]
  Ki: 14.2 µM
[4]; [16]
  Ki: 8.08 µM
[5]; [17]
  Ki: 5.48 µM

## CCCn1c(=O)c2[nH]c(-c3ccc(OCC(=O)NN4C(=O)c5ccccc5C4=O)cc3)nc2n(CCC)c1=O [Compound 57, 8-[4-[(Carboxymethyl)oxy]phenyl]-1,3-di-(n-propyl)xanthine N,N-Phthaloylhydrazide]
[6]; Table 4, read-out: rA1 Ki
  Ki: 0.0263 ± 0.0023 µM
[1]; Table 4, read-out: rA2A Ki
  Ki: 0.392 ± 0.117 µM
[2]; Table 4
  rA1/hA2B: 0.41
[2]; [13]
  Ki: 0.0464 µM
[2]; [14]
  Ki: 0.0644 ± 0.0008 µM
[3]; [15]
  Ki: 0.147 ± 0.021 µM
[4]; [16]
  Ki: 0.21 µM
[5]; [17]
  Ki: 0.359 µM
